Test results: patent publication US20070116745A1, “Spermicidal preparations and uses thereof” (CONVE LTD., priority 2004, published 2007)

Columns and labels:
sperm = assay: Modified Sander-Cramer assay (complete sperm immobilization); format: cell-based; details: solvent 0.9% NaCl pH 5, 30-second coincubation, n=6
Experimental: The above formulations were used in a series of (i) Sander-Cramer assays (assessment of complete sperm immobilization during a 30-second, compound-sperm coincubation); and (ii) cervical mucous (CM) penetration assays (compound is pre-incubated with a CM microcolumn for 30 minutes, after which sperm are introduced into the system; sperm migration through the mucous is compared to that of control).

[1] = Solubility in assay solvent (Table 1); format: physicochemical; details: in 0.9% NaCl pH 5 at initial conc

For nonoxynol-9, the “HIGHEST SPERMICIDAL DILUTION (1/X)” value (sperm; initial conc 1 mg/ml) was 8.0 ± 0.0 1/X, the “M.E.C. (Minimum Effective Concentration)” value (sperm) was 0.125 ± 0.000 mg/mL and the SOLUBILITY [1] was “OK - clear”.
